{"source": "patent US11370778B2", "about": "“Bis(pentahydroxyhexyl)amino substituted 2-{[(3-amino-pyrazin-2-yl)formamido]methyl}-1H-1,3-benzodiazol-3-ium derivatives as ENaC inhibitors for treating respiratory diseases” (ENTERPRISE THERAPEUTICS LIMITED, priority 2017, dated 2022)", "note": "Counter-ions that a name gives are not always drawn.", "data": [{"test": "Bronchoalveolar lavage: compound levels in BAL after intratracheal administration", "assay_type": "in vivo", "settings": "bronchoalveolar lavage fluid (BAL), other: intratracheal, 0.1 mg/kg, rat, 0.1 mg/mL solution in 5% dextrose, 1 mL/Kg, lungs lavaged after 6 hours, LC/MS/MS", "procedure": "Example 9—Bronchoalveolar Lavage A 0.1 mg/mL solution of ENaC inhibitor in 5% dextrose was administered intratracheally to a rat weighing 225-250 g. A volume of 1 mL/Kg was used. After 6 hours, lungs were lavaged with 3×4 mL of sterile saline. A 1 mL aliquot was subsequently snap frozen. Lungs were excised, weighed and snap frozen. Compound levels in the BAL and lung tissue were subsequently determined using LC/MS/MS bioanalysis.", "units": {"concentration at 6 h": "ng/mL"}, "values": [{"smiles": "CCn1c(CNC(=O)c2nc(Cl)c(N)nc2N)[n+](CC)c2ccc(C(=O)N3CCC(N(C[C@H](O)[C@@H](O)[C@H](O)[C@H](O)CO)C[C@H](O)[C@@H](O)[C@H](O)[C@H](O)CO)CC3)cc21", "note": "[Example 1, 6-(4-{bis[(2S,3R,4R,5R)-2,3,4,5,6-pentahydroxyhexyl]amino}piperidine-1-carbonyl)-2-{[(3,5-diamino-6-chloropyrazin-2-yl)formamido]methyl}-1,3-diethyl-1H-1,3-benzodiazol-3-ium trifluoroacetic acid trifluoroacetate]", "concentration at 6 h": 222}, {"smiles": "CCn1c(CNC(=O)c2nc(Cl)c(N)nc2N)[n+](CC)c2ccc(C(=O)N3CCC(CN(C[C@H](O)[C@@H](O)[C@H](O)[C@H](O)CO)C[C@H](O)[C@@H](O)[C@H](O)[C@H](O)CO)CC3)cc21", "note": "[Example 3, 6-[4-({bis[(2S,3R,4R,5R)-2,3,4,5,6-pentahydroxyhexyl]amino}methyl)piperidine-1-carbonyl]-2-{[(3,5-diamino-6-chloropyrazin-2-yl)formamido]methyl}-1,3-diethyl-1H-1,3-benzodiazol-3-ium trifluoroacetic acid trifluoroacetate]", "concentration at 6 h": 210}, {"smiles": "CCn1c(CNC(=O)c2nc(Cl)c(N)nc2N)[n+](CC)c2ccc(C(=O)N3CC[C@@H](N(C[C@H](O)[C@@H](O)[C@H](O)[C@H](O)CO)C[C@H](O)[C@@H](O)[C@H](O)[C@H](O)CO)C3)cc21", "note": "[Example 4, 6-[(3R)-3-{bis[(2S,3R,4R,5R)-2,3,4,5,6-pentahydroxyhexyl]amino}pyrrolidine-1-carbonyl]-2-{[(3,5-diamino-6-chloropyrazin-2-yl)formamido]methyl}-1,3-diethyl-1H-1,3-benzodiazol-3-ium trifluoroacetic acid trifluoroacetate]", "concentration at 6 h": 524}, {"smiles": "CCn1c(CNC(=O)c2nc(Cl)c(N)nc2N)[n+](CC)c2ccc(C(=O)NCCN(C[C@H](O)[C@@H](O)[C@H](O)[C@H](O)CO)C[C@H](O)[C@@H](O)[C@H](O)[C@H](O)CO)cc21", "note": "[Example 5, 6-[(2-{bis[(2S,3R,4R,5R)-2,3,4,5,6-pentahydroxyhexyl]amino}ethyl)carbamoyl]-2-{[(3,5-diamino-6-chloropyrazin-2-yl)formamido]methyl}-1,3-diethyl-1H-1,3-benzodiazol-3-ium trifluoroacetic acid trifluoroacetate]", "concentration at 6 h": 471}, {"smiles": "CCn1c(CNC(=O)c2nc(Cl)c(N)nc2N)[n+](CC)c2ccc(C(=O)NCCOCCOCCOCCN(C[C@H](O)[C@@H](O)[C@H](O)[C@H](O)CO)C[C@H](O)[C@@H](O)[C@H](O)[C@H](O)CO)cc21", "note": "[Example 6, 2-{[(3,5-diamino-6-chloropyrazin-2-yl)formamido]methyl}-1,3-diethyl-6-{[(14S,15R,16R,17R)-14,15,16,17,18-pentahydroxy-12-[(2S,3R,4R,5R)-2,3,4,5,6-pentahydroxyhexyl]-3,6,9-trioxa-12-azaoctadecan-1-yl]carbamoyl}-1H-1,3-benzodiazol-3-ium trifluoroacetic acid trifluoroacetate]", "concentration at 6 h": 251}, {"smiles": "CCn1c(CNC(=O)c2nc(Cl)c(N)nc2N)[n+](CC)c2ccc(C(=O)NCCc3ccc(-c4ccc(CCN(C[C@H](O)[C@@H](O)[C@H](O)[C@H](O)CO)C[C@H](O)[C@@H](O)[C@H](O)[C@H](O)CO)cc4)cc3)cc21", "note": "[Example 7, 6-({2-[4′-(2-{bis[(2S,3R,4R,5R)-2,3,4,5,6-pentahydroxyhexyl]amino}ethyl)-[1,1′-biphenyl]-4-yl]ethyl}carbamoyl)-2-{[(3,5-diamino-6-chloropyrazin-2-yl)formamido]methyl}-1,3-diethyl-1H-1,3-benzodiazol-3-ium trifluoroacetic acid trifluoroacetate]", "concentration at 6 h": 645}]}]}
